Assay results reported in PubChem BioAssay AID248 (DTP/NCI, 2004).
Values joined by “and” are separate entries in the source; they are usually repeats but may differ in a detail not shown here. Identical values can stand only once. Inconclusive results and toxic doses are left out. No stated cut-off is given here; in the data, active means T/C of 150% or more; inactive means T/C below 125%.

Tested on: L1210 leukemia ip in BDF1 mice, survival T/C
Assay: NCI In Vivo Anticancer Drug Screen. Data for tumor model L1210 Leukemia (intraperitoneal) in B6D2F1 (BDF1) mice
Details: endpoint: mean survival time, higher = longer survival
Procedure, shortened: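 Transplanted-tumor mice were given test agent; controls received vehicle only. Survival readings from the two groups were divided (treated over control).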

[1] = dose: 50.0 mg/kg/injection, schedule: Q01DX009 (ip), vehicle: Klucel (hydroxypropylcellulose) (HPC)
[2] = dose: 100.0 mg/kg/injection, schedule: Q01DX009 (ip), vehicle: Klucel (hydroxypropylcellulose) (HPC)
[3] = dose: 100.0 mg/kg/injection, schedule: Q04DX003 (ip), vehicle: other
[4] = dose: 400.0 mg/kg/injection, schedule: Q04DX003 (ip), vehicle: other
[5] = dose: 100.0 mg/kg/injection, schedule: Q04DX003 (ip), vehicle: saline with Tween-80
[6] = dose: 200.0 mg/kg/injection, schedule: Q04DX003 (ip), vehicle: saline with Tween-80
[7] = dose: 400.0 mg/kg/injection, schedule: Q04DX003 (ip), vehicle: saline with Tween-80
[8] = dose: 100.0 mg/kg/injection, schedule: Q01DX001 (ip), vehicle: carboxymethylcellulose (CMC)
[9] = dose: 200.0 mg/kg/injection, schedule: Q01DX001 (ip), vehicle: carboxymethylcellulose (CMC)
[10] = dose: 200.0 mg/kg/injection, schedule: Q01DX009 (ip), vehicle: Klucel (hydroxypropylcellulose) (HPC)
[11] = dose: 400.0 mg/kg/injection, schedule: Q01DX001 (ip), vehicle: carboxymethylcellulose (CMC)
[12] = dose: 100.0 mg/kg/injection, schedule: Q04DX003 (ip), vehicle: saline
[13] = dose: 100.0 mg/kg/injection, schedule: Q04DX002 (ip), vehicle: Klucel (hydroxypropylcellulose) (HPC)
[14] = dose: 200.0 mg/kg/injection, schedule: Q04DX002 (ip), vehicle: Klucel (hydroxypropylcellulose) (HPC)
[15] = dose: 400.0 mg/kg/injection, schedule: Q04DX002 (ip), vehicle: Klucel (hydroxypropylcellulose) (HPC)
[16] = dose: 25.0 mg/kg/injection, schedule: Q01DX009 (ip), vehicle: saline
[17] = dose: 50.0 mg/kg/injection, schedule: Q01DX009 (ip), vehicle: saline
[18] = dose: 100.0 mg/kg/injection, schedule: Q01DX001 (ip), vehicle: saline
[19] = dose: 200.0 mg/kg/injection, schedule: Q01DX001 (ip), vehicle: saline
[20] = dose: 400.0 mg/kg/injection, schedule: Q01DX001 (ip), vehicle: saline
[21] = dose: 100.0 mg/kg/injection, schedule: Q04DX003 (ip), vehicle: Klucel (hydroxypropylcellulose) (HPC)
[22] = dose: 200.0 mg/kg/injection, schedule: Q04DX003 (ip), vehicle: Klucel (hydroxypropylcellulose) (HPC)
[23] = dose: 400.0 mg/kg/injection, schedule: Q04DX003 (ip), vehicle: Klucel (hydroxypropylcellulose) (HPC)

Measured: T/C

CN(C)C(=S)SSC(=S)N(C)C
inactive: [1] 92 % of control | [2] 99 % of control | [3] 95 % of control | dose: 200.0 mg/kg/injection, schedule: Q04DX003 (ip), vehicle: other 103 % of control | [4] 96 % of control

NNC(=O)C1C2C=CC(C2)C1C(=O)NN (configuration not stated)
inactive: [5] 103 % of control | [6] 91 % of control | [7] 100 % of control

CON(C)c1nc(Cl)nc(N(C)OC)n1
inactive: [8] 96 % of control | [2] 97 % of control | [9] 94 % of control | [10] 105 % of control | [11] 107 % of control | dose: 400.0 mg/kg/injection, schedule: Q01DX009 (ip), vehicle: Klucel (hydroxypropylcellulose) (HPC) 105 % of control

O=P(O)(O)OP(=O)(O)OP(=O)(O)OCC1OC(N2C=NC3C4NC=CN4CNC32)C(O)C1O (configuration not stated)
inactive: dose: 3.13 mg/kg/injection, schedule: Q03HX024 (ip), vehicle: saline 97 % of control | dose: 6.25 mg/kg/injection, schedule: Q03HX024 (ip), vehicle: saline 93 % of control | dose: 7.5 mg/kg/injection, schedule: Q03HX024 (ip), vehicle: saline 95 % of control | dose: 15.0 mg/kg/injection, schedule: Q03HX024 (ip), vehicle: saline 93 % of control

CCC(C)(C)c1cc(Sc2cc(C(C)(C)CC)cc(C(C)(C)CC)c2O)c(O)c(C(C)(C)CC)c1
inactive: [12] 109 % of control | dose: 200.0 mg/kg/injection, schedule: Q04DX003 (ip), vehicle: saline 100 % of control | dose: 400.0 mg/kg/injection, schedule: Q04DX003 (ip), vehicle: saline 88 % of control

CC(=O)Nc1ccc(S(=O)(=O)Oc2ccccc2)cc1
inactive: dose: 100.0 mg/kg/injection, schedule: Q04DX003 (ip), vehicle: alcohol 98 % of control | dose: 200.0 mg/kg/injection, schedule: Q04DX003 (ip), vehicle: alcohol 98 % of control | dose: 400.0 mg/kg/injection, schedule: Q04DX003 (ip), vehicle: alcohol 108 % of control

N#CC(CCCc1ccccc1)c1ccc(N)cc1 (configuration not stated)
inactive: dose: 100.0 mg/kg/injection, schedule: Q01DX001 (ip), vehicle: Klucel (hydroxypropylcellulose) (HPC) 91 % of control | dose: 200.0 mg/kg/injection, schedule: Q01DX001 (ip), vehicle: Klucel (hydroxypropylcellulose) (HPC) 94 % of control | dose: 400.0 mg/kg/injection, schedule: Q01DX001 (ip), vehicle: Klucel (hydroxypropylcellulose) (HPC) 103 % of control

O=S(=O)(CBr)CC(Cl)c1ccccc1 (configuration not stated)
inactive: [13] 100 % of control | [14] 106 % of control | [15] 100 % of control

CCN(CC)CCOc1ccccc1OC
inactive: dose: 12.0 mg/kg/injection, schedule: Q01DX009 (ip), vehicle: saline 107 % of control | [16] 101 % of control | [17] 101 % of control | [18] 93 % of control | [19] 95 % of control

COC(=O)/C=C(/Nc1cc(Cl)cc(Cl)c1)C(=O)OC
inactive: [18] 95 % of control | [3] 86 % of control | [19] 98 % of control | [20] 90 % of control | [4] 104 % of control

CC(=O)CC(C)=Nc1ccc([N+](=O)[O-])cc1.CC(=O)CC(C)=Nc1ccc([N+](=O)[O-])cc1.[Cu]
inactive: dose: 12.5 mg/kg/injection, schedule: Q01DX001 (ip), vehicle: saline with Tween-80 93 % of control | dose: 25.0 mg/kg/injection, schedule: Q01DX001 (ip), vehicle: saline with Tween-80 88 % of control | dose: 50.0 mg/kg/injection, schedule: Q01DX001 (ip), vehicle: saline with Tween-80 91 % of control

Cc1ccc(CC(=O)c2c(C)[nH]c3ccccc23)cc1C
inactive: dose: 50.0 mg/kg/injection, schedule: Q01DX001 (ip), vehicle: saline 108 % of control | [18] 96 % of control | [19] 96 % of control | [20] 96 % of control

O=C1C(C2OC2c2ccccc2)CCCC1C1OC1c1ccccc1 (configuration not stated)
inactive: dose: 100.0 mg/kg/injection, schedule: Q01DX009 (ip), vehicle: saline sonified 94 % of control | [21] 97 % of control | dose: 200.0 mg/kg/injection, schedule: Q01DX009 (ip), vehicle: saline sonified 97 % of control | [22] 98 % of control | dose: 400.0 mg/kg/injection, schedule: Q01DX009 (ip), vehicle: saline sonified 103 % of control | [23] 97 % of control

O=C1CCCNc2c(Br)cc(Br)cc21
inactive: [8] 91 % of control | [9] 94 % of control | [11] 100 % of control

O=[N+]([O-])c1ccc(N=Cc2ccccc2O)cc1
inactive: dose: 50.0 mg/kg/injection, schedule: Q01DX001 (sc), vehicle: olive oil, sesame oil, peanut oil 98 % of control | dose: 100.0 mg/kg/injection, schedule: Q01DX001 (sc), vehicle: olive oil, sesame oil, peanut oil 98 % of control | dose: 200.0 mg/kg/injection, schedule: Q01DX001 (sc), vehicle: olive oil, sesame oil, peanut oil 98 % of control | dose: 400.0 mg/kg/injection, schedule: Q01DX001 (sc), vehicle: olive oil, sesame oil, peanut oil 108 % of control

O=[N+]([O-])c1ccn(Cc2ccccc2)c1
inactive: [8] 97 % of control | [9] 88 % of control | [11] 92 % of control

CCN(CC)Cc1cc(Nc2c3ccccc3nc3cc(Cl)ccc23)ccc1O
inactive: dose: 12.5 mg/kg/injection, schedule: Q01DX009 (ip), vehicle: saline 101 % of control | [16] 98 % of control | dose: 30.0 mg/kg/injection, schedule: Q01DX Z (ip), vehicle: methylcellulose (MC) 113 % of control | dose: 30.0 mg/kg/injection, schedule: Q01DX Z (ip), vehicle: saline 101 % of control | dose: 45.0 mg/kg/injection, schedule: Q01DX Z (ip), vehicle: methylcellulose (MC) 100 % of control | dose: 45.0 mg/kg/injection, schedule: Q01DX Z (ip), vehicle: saline 109 % of control | dose: 50.0 mg/kg/injection, schedule: Q01DX001 (ip), vehicle: carboxymethylcellulose (CMC) 102 % of control | [17] 103 % of control | dose: 67.0 mg/kg/injection, schedule: Q01DX Z (ip), vehicle: methylcellulose (MC) 101 % of control | dose: 67.0 mg/kg/injection, schedule: Q01DX Z (ip), vehicle: saline 107 % of control | [8] 102 % of control | dose: 100.0 mg/kg/injection, schedule: Q01DX Z (ip), vehicle: methylcellulose (MC) 103 % of control | [12] 91 % of control | [9] 105 % of control | [11] 102 % of control

NNC(=S)NC1CCCCC1
inactive: dose: 25.0 mg/kg/injection, schedule: Q04DX003 (ip), vehicle: Klucel (hydroxypropylcellulose) (HPC) 100 % of control | dose: 50.0 mg/kg/injection, schedule: Q04DX003 (ip), vehicle: Klucel (hydroxypropylcellulose) (HPC) 95 % of control | [21] 95 % of control and 90 % of control | [5] 96 % of control | [6] 96 % of control | [7] 96 % of control

CC(C)(C)OC(=O)N1C2C=CC(C2)N1C(=O)OC(C)(C)C
inactive: dose: 100.0 mg/kg/injection, schedule: Q01DX001 (ip), vehicle: other 101 % of control | [21] 102 % of control | dose: 200.0 mg/kg/injection, schedule: Q01DX001 (ip), vehicle: other 104 % of control | [22] 98 % of control | dose: 400.0 mg/kg/injection, schedule: Q01DX001 (ip), vehicle: other 96 % of control | [23] 109 % of control

Cc1c(O)cc2c(c1O)C(=O)CC(c1ccc(O)cc1)O2 (configuration not stated)
inactive: [13] 91 % of control | [14] 87 % of control | [15] 108 % of control

O=C(Nc1ccccc1)c1ccco1
inactive: [1] 102 % of control | [2] 102 % of control | [13] 102 % of control | [10] 100 % of control | [14] 98 % of control | [15] 91 % of control

C1=C(c2ccccc2)N(C2CCCC2)C(c2ccccc2)=CN1Cc1ccccc1
inactive: [13] 100 % of control | [14] 95 % of control | [15] 97 % of control
